In PubChem BioAssay (NCI):
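Interpolation was linear, between the two tested concentrations surrounding the appropriate level; five concentrations were tested over 48 hours in 96-well plates. Here, GI50 denotes the concentration required for 50% inhibition of growth. At the TGI there is no net growth.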

Key:
Assay in all cases: NCI anticancer screen, dose series, 48 h
DU-145 prostate = test system: DU-145 prostate
HT29 colon = test system: HT29 colon
OVCAR-4 ovarian = test system: OVCAR-4 ovarian
SF-539 CNS = test system: SF-539 CNS
SK-MEL-2 melanoma = test system: SK-MEL-2 melanoma
SK-OV-3 ovarian = test system: SK-OV-3 ovarian
SW-620 colon = test system: SW-620 colon
U251 CNS = test system: U251 CNS
UACC-257 melanoma = test system: UACC-257 melanoma
SK-MEL-28 melanoma = test system: SK-MEL-28 melanoma

SMILES	TGI (DU-145 prostate) [µM]	TGI (HT29 colon) [µM]	TGI (OVCAR-4 ovarian) [µM]	TGI (SF-539 CNS) [µM]	TGI (SK-MEL-2 melanoma) [µM]	TGI (SK-OV-3 ovarian) [µM]	TGI (SW-620 colon) [µM]	TGI (U251 CNS) [µM]	TGI (UACC-257 melanoma) [µM]	TGI (SK-MEL-28 melanoma) [µM]	GI50 (DU-145 prostate) [µM]	GI50 (HT29 colon) [µM]	GI50 (OVCAR-4 ovarian) [µM]	GI50 (SF-539 CNS) [µM]	GI50 (SK-MEL-28 melanoma) [µM]	GI50 (SK-OV-3 ovarian) [µM]	GI50 (SW-620 colon) [µM]	GI50 (U251 CNS) [µM]	GI50 (UACC-257 melanoma) [µM]	GI50 (SK-MEL-2 melanoma) [µM]
Cc1coc2c1CC1(C)C(CCC(O)C1C)C2 (centres undefined)	> 100	> 100	> 100	> 100	> 100	> 100	> 100	> 100	> 100											
CC(C)=CC(=O)C1c2cccc(O)c2C(=O)c2c(O)cc(C)cc21 (centres undefined)		20.5	4.52	3.04	3.6	8.48	10.2	3.82	8.5	9.04										
O=C(O)c1ccccc1[Se][Se]c1ccccc1C(=O)O		> 100		> 100	> 100	> 100	> 100	> 100	> 100	> 100										
NC(Cc1c[nH]c2c(O)cccc12)C(=O)O (centres undefined)	> 100	> 100	> 100	> 100		> 100	> 100	> 100	> 100	> 100	> 100	> 100	> 100	> 100	> 100	> 100	> 100	> 100	> 100	
CSc1nc2c(c(=O)[nH]1)N=C1c3ccccc3C(=O)C1C(c1ccccc1)N2 (centres undefined)	> 100	> 100	> 100	17.9	> 100	> 100	> 100	> 100		> 100	13.4	2.97	5.62	2.84	3.73	7.65	2.92	3.52		9.02
CN(C)CC[N+]1=Nc2cccc3cccc(c23)N1		> 100	> 100	> 100	> 100	> 100	> 58	> 100	> 100	> 100										
COc1ccc2c3c1C(=O)CCCC3CO2 (centres undefined)		> 100	> 100	> 100	> 100	> 100	> 100	> 100	> 100	> 100										
CN/N=C(/Cc1occc(=O)c1O)C(=O)Nc1ccccc1C		> 100	> 100	> 100	> 100	> 100	> 100	> 100	> 100	> 100										
O=S1(=O)c2ccccc2NC(c2ccc3ccccc3c2)CC1c1ccccc1F (centres undefined)		> 100	> 100	> 100	> 100	> 100	> 100		> 100	> 100										
CC1=C(C(=O)Nc2ccc(Cl)c(Cl)c2)C(c2cccc(Oc3ccccc3)c2)NC(=S)N1 (centres undefined)	13.3		16.5	13	18.9	16.3	15	14.8	22		6.88		7.56	6.6		8.1	8.23	7.84	9.73	9.38
O=C1/C(=C/c2ccccc2)CN(C(=O)C(Cl)(Cl)Cl)C/C1=C\c1ccccc1		2.75	3.42	9.91	10.3		1.82	3	2.92	3.33										
CC1(C)CCc2c(c3c(c4c(=O)c(O)c(-c5ccc(O)cc5)oc24)OC(C)(C)CC3)O1	> 100	> 100	> 100		> 100	53.4	> 100	65.5		> 100	85.1	> 100	> 100		> 100	23.2	> 100	24.7		67.2
CCCCCCCCCCCOc1ccc(C(=O)C(=O)c2ccc(OCCCCCCCCCCC)c(OCCCCCCCCCCC)c2)cc1OCCCCCCCCCCC		> 100	> 100	> 100	> 100	> 100	> 100	> 100	> 100	> 100										
O=CC[C@H]1C(=O)C[C@@H]2CCC[C@@H]21		> 100	> 100	> 100	> 100	> 100	> 100	> 100	> 100	> 100										
C/C(CC(=O)CCC(=O)Nc1cccc(C(F)(F)F)c1)=N\NC(=O)NN		> 100	> 100	> 100	> 100	> 100	> 100	> 100	> 100	> 100										
Cc1nc2ccccc2c(N)c1-c1cc(C)c2c(C)nc3ccccc3c2n1	1.67	2.52	2.4	2.59		4.72	0.435	0.959	3.29	2.97	0.479	0.749	0.831	1.31	1.61	1.8	0.183	0.288	1.79	
O=C(/C=C/c1ccccc1)NC1C=Nc2ccc(Cl)cc2NC1=O (centres undefined)		> 100	> 100	88.2	> 100	> 100	24.2	79.9	87	> 100										
COC(=O)CC1CCN(C#N)CC1CC[N+](=O)[O-] (centres undefined)			> 100	> 100	> 100	> 100	> 100	> 100	> 100	> 100										
